Legend:
METTL3/14 = METTL3/14 (Homo sapiens (Human), UniProt Q86U44); test: METTL3/14 methyltransferase biochemical assay (RapidFire mass spectrometry, METTL3_14 RFMS)
Experimental: The enzymatic assay was established to determine IC50 values for inhibition of RNA methyltransferase activity. The enzyme used was full-length his-tagged METTL3 co-expressed with full length FLAG-tagged METTL14 in a baculovirus expression system. […] The reaction was incubated for further 60 minutes at room temperature, and then quenched by the addition of 40 μL 7.5% TCA with two internal product standards (D4-SAH and ^13C10-SAH). After termination, plates were sealed, centrifuged and stored at 4° C. until analysis. […] RNA methyltransferase activity was measured label free using the RapidFireTM mass spectrometry (RF/MS) platform. Stopped and stable assay plates were analyzed on the Agilent RF300 integrated autosampler/solid-phase extraction (SPE) system coupled to an ABSciex 4000 mass spectrometer for the generation of the product S-adenosyl homocysteine (SAH) and normalized to the ratio of signal of the two internal product standards, respectively. Solvent A was water containing 0.1% (v/v) TCA. Solvent B was acetonitrile/0.1% ammonium acetate (8:2, v/v).

Caov-3 cells = test: Caov3 CTG proliferation assay (CellTiter-Glo); format: cell-based; details: Homo sapiens, 120 hours treatment, 30 μM top concentration
Experimental: (§1) Cell treatment and cell growth assessment: 18 hours post-seeding in white 384-Viewplate (6007480, PerkinElmer) at 1500 cells/well, Caov3 cells were treated for 120 hours with compounds inhibiting the METTL3/14 activity (10 serial semi-log dilutions, 30 μM as top concentration). Upon treatment, Coav-3 cells were incubated for 10 min at RT with the CellTiter-Glo reagent (G7571, Promega). Measurement of the luminescence signal was performed on a microplate reader (Ensight, PerkinElmer).

KASUMI-1 cells = test: Kasumi cell assay (CellTiter-Glo cell growth); format: cell-based; details: Homo sapiens, 120 hours treatment, 30 μM top concentration
Experimental: Cell culture: KASUMI-1 cells (ACC20, Leibniz-Institut DSMZ Deutsche Sammlung von Mikroorganismen und Zellkulturen GmbH) were grown in RPMI 1640 (31870-025, Gibco) supplemented with 20% fetal bovine serum (F1524, Gibco), 1 mM sodium pyruvate (11360-039, Gibco) and 2 mM Glutamax (35050-038, Gibco) in a 5% CO2 humidified incubator at 37° C.
as §1, with “KASUMI-1” for “18”, “were seeded” for “post-seeding”, “ultra-low attachment 384-well culture plate (MS-9384WZ, SBio)” for “white 384-Viewplate (6007480, PerkinElmer)”, “a final concentration of 250,000 cells/ml (35 μL/well) and” for “1500 cells/well, Caov3 cells were”, “Kasumi1” for “Coav-3”

Chain of METTL3/14 (Q86U44 whole entry): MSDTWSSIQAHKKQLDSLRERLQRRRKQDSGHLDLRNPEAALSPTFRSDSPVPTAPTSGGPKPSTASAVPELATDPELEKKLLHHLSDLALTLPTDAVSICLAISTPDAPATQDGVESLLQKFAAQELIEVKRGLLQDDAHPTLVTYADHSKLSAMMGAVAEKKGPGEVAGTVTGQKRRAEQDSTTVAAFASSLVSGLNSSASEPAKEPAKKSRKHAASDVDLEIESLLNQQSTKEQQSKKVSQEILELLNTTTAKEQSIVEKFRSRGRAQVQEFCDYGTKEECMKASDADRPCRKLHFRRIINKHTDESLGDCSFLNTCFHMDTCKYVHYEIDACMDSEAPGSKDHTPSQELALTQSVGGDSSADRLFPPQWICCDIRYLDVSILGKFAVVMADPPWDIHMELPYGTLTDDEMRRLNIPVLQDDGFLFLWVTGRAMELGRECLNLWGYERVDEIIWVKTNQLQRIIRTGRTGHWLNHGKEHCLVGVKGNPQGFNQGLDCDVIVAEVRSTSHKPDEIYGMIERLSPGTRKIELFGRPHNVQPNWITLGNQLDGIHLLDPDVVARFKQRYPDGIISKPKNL
Chain of METTL3/14 (Q9HCE5 whole entry partner): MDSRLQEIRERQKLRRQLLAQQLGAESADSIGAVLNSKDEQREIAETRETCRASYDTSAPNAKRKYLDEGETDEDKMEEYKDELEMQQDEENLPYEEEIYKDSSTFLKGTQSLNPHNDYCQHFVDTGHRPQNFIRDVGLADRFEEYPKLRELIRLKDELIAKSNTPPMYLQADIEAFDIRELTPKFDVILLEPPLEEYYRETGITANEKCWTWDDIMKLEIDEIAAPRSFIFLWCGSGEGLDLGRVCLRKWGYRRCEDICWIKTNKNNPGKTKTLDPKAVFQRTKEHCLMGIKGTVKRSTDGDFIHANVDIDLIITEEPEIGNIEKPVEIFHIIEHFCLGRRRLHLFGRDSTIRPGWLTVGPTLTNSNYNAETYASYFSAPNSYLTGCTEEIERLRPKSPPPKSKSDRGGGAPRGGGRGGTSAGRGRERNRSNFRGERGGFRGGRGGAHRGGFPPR

Compound	IC50 (METTL3/14) [nM]	IC50 (Caov-3 cells) [nM]	IC50 (KASUMI-1 cells) [nM]
Fc1ncn2cccc(-c3cn(Cc4cn5cc(CNCC6CCC6)ccc5n4)nn3)c12 [Example 25, (cyclobutylmethyl)({2-[(4-{1-fluoroimidazo[1,5-a]pyridin-8-yl}-1H-1,2,3-triazol-1-yl)methyl]imidazo[1,2-a]pyridin-6-yl}methyl)amine]	15.8	2720	4820
COc1cc(-c2cn(Cc3cn4cc(CNCC56CC(F)(C5)C6)ccc4n3)nn2)c2cncn2c1 [Example 26, ({3-fluorobicyclo[1.1.1]pentan-1-yl}methyl)({2-[(4-{6-methoxyimidazo[1,5-a]pyridin-8-yl}-1H-1,2,3-triazol-1-yl)methyl]imidazo[1,2-a]pyridin-6-yl}methyl)amine]	6.1	110	449
COc1cc(-c2cn(Cc3cn4cc(CN5CC6(CCC6)C5)ccc4n3)nn2)c2cncn2c1 [Example 30, 2-({2-[(4-{6-methoxyimidazo[1,5-a]pyridin-8-yl}-1H-1,2,3-triazol-1-yl)methyl]imidazo[1,2-a]pyridin-6-yl}methyl)-2-azaspiro[3.3]heptane]	6.1	598	2080
COc1cnc(C#N)c(-c2cn(Cc3cn4cc(CNCC56CC(F)(C5)C6)ccc4n3)nn2)c1 [Example 41, 3-{1-[(6-{[({3-fluorobicyclo[1.1.1]pentan-1-yl}methyl)amino]methyl}imidazo[1,2-a]pyridin-2-yl)methyl]-1H-1,2,3-triazol-4-yl}-5-methoxypyridine-2-carbonitrile]	16	4070	2660
COc1cncc(-c2cn(Cc3cn4cc(CNCC56CC(F)(C5)C6)ccc4n3)nn2)n1 [Example 44, ({3-fluorobicyclo[1.1.1]pentan-1-yl}methyl)[(2-{[4-(6-methoxypyrazin-2-yl)-1H-1,2,3-triazol-1-yl]methyl}imidazo[1,2-a]pyridin-6-yl)methyl]amine]	–	2440	1990
COc1cncc(-c2cn(Cc3cn4cc(CNCC56CC(F)(C5)C6)ccc4n3)nn2)c1 [Example 45, ({3-fluorobicyclo[1.1.1]pentan-1-yl}methyl)[(2-{[4-(5-methoxypyridin-3-yl)-1H-1,2,3-triazol-1-yl]methyl}imidazo[1,2-a]pyridin-6-yl)methyl]amine]	–	918	2520

Continued by falling IC50 (METTL3/14), values first:

IC50 (METTL3/14) [nM]	Compound	IC50 (Caov-3 cells) [nM]	IC50 (KASUMI-1 cells) [nM]
13	COc1ccncc1-c1cn(Cc2cn3cc(CNCC45CC(F)(C4)C5)ccc3n2)nn1 [Example 47, ({3-fluorobicyclo[1.1.1]pentan-1-yl}methyl)[(2-{[4-(4-methoxypyridin-3-yl)-1H-1,2,3-triazol-1-yl]methyl}imidazo[1,2-a]pyridin-6-yl)methyl]amine]	1380	4450
6.5	c1cc(-c2cn(Cc3cn4cc(CN5CC6(CCC6)C5)ccc4n3)nn2)c2cncn2c1 [Example 29, 2-({2-[(4-{imidazo[1,5-a]pyridin-8-yl}-1H-1,2,3-triazol-1-yl)methyl]imidazo[1,2-a]pyridin-6-yl}methyl)-2-azaspiro[3.3]heptane]	473	1570
6.1	O=C(NCc1cn2cc(CNCC34CC(F)(C3)C4)ccc2n1)c1cc(=O)n2ccsc2n1 [Example 19, N-[(6-{[({3-fluorobicyclo[1.1.1]pentan-1-yl}methyl)amino]methyl}imidazo[1,2-a]pyridin-2-yl)methyl]-5-oxo-5H-[1,3]thiazolo[3,2-a]pyrimidine-7-carboxamide]	364	1360
6.1	COc1cc(-c2cn(Cc3cn4cc(CNCC5CCC5)ccc4n3)nn2)c2cncn2c1 [Example 22, (cyclobutylmethyl)({2-[(4-{6-methoxyimidazo[1,5-a]pyridin-8-yl}-1H-1,2,3-triazol-1-yl)methyl]imidazo[1,2-a]pyridin-6-yl}methyl)amine]	305	1150
6.1	c1cc(-c2cn(Cc3cn4cc(CNCC5CCC5)ccc4n3)nn2)c2cncn2c1 [Example 23, (cyclobutylmethyl)({2-[(4-{imidazo[1,5-a]pyridin-8-yl}-1H-1,2,3-triazol-1-yl)methyl]imidazo[1,2-a]pyridin-6-yl}methyl)amine]	888	2940
6.1	COc1cc(-c2cn(Cc3cn4cc(CNCC56CC(C5)C6)ccc4n3)nn2)c2cncn2c1 [Example 28, ({bicyclo[1.1.1]pentan-1-yl}methyl)({2-[(4-{6-methoxyimidazo[1,5-a]pyridin-8-yl}-1H-1,2,3-triazol-1-yl)methyl]imidazo[1,2-a]pyridin-6-yl}methyl)amine]	102	316
6	N#Cc1ncc(N2CCOCC2)cc1-c1cn(Cc2cn3cc(CNCC45CC(F)(C4)C5)ccc3n2)nn1 [Example 51, 3-{1-[(6-{[({3-fluorobicyclo[1.1.1]pentan-1-yl}methyl)amino]methyl}imidazo[1,2-a]pyridin-2-yl)methyl]-1H-1,2,3-triazol-4-yl}-5-(morpholin-4-yl)pyridine-2-carbonitrile]	1330	1860
6	FC12CC(CNCc3ccc4nc(Cn5cc(-c6cncc(N7CCOCC7)c6)nn5)cn4c3)(C1)C2 [Example 52, ({3-fluorobicyclo[1.1.1]pentan-1-yl}methyl)({[2-({4-[5-(morpholin-4-yl)pyridin-3-yl]-1H-1,2,3-triazol-1-yl}methyl)imidazo[1,2-a]pyridin-6-yl]methyl})amine]	540	1610

From patent US20230391770A1, “METTL3 INHIBITORY COMPOUNDS” (Storm Therapeutics Limited, priority 2020, published 2023)
